Experiment [1] has as its target T1, PCSK9 (Homo sapiens, UniProt Q8NBP7). Nature of the experiment: Assay 2 Biophysical human PCSK9 assay (SPR, Biacore). Type of experiment: binding. Particulars: single-cycle kinetics, 30° C., geometric mean, read-out: Assay 2 (PCSK9 BIAcore DBA Cr) GMean Kd. The arrangement: biotinylated human PCSK9 (31-692)-Avi-His6; His6 (C). The protocol:
The SPR binding experiments were performed on a Biacore S200 optical biosensor unit at 30° C. A Series S Sensor Chip SA that is designed to bind biotinylated molecules for interaction analysis in Biacore systems was equilibrated at room temperature prior to use. The running buffer for protein tethering and subsequent ligand binding experiments was 10 mM HEPES pH 7.4, 150 mM NaCl, 0.05% (v/v) Tween 20 pH 7.4.
For the surface tethering of PCSK9, biotinylated human PCSK9 (31-692)-Avi-His6 at a concentration of 0.5 mg/mL was used. Prior to the surface tethering, the surface was exposed to a solution of 50 mM NaOH, 500 mM NaCl via 3 consecutive injections of this solution with a contact time of 60 s and a flowrate of 10 μL min^−1 to remove non-conjugated streptavidin. The PCSK9 protein was diluted to a concentration of 20 μg/mL using running buffer and injected with a contact time of 180-300 s and a flowrate of 10 μL min^−1 over a single flow channel (typically flow channel 2 or flow channel 4) with the aim to achieve protein capture levels of >5000 response units (RU). Remaining biotin binding sites were blocked via 2 consecutive injections of a 10 μM D-biotin solution in running buffer with a contact time of 60 s and a flowrate of 10 μL min^−1 over all flow-channels. Flow-channels 1 and 3 typically served as a reference surface throughout the subsequent binding experiments.
The binding experiments were all performed at a flow rate of 30 PL min^−1 and by employing the method of single-cycle kinetics. This approach involves the sequential injection of a compound concentration series without regeneration steps. A contact time between 90-150 s was selected, which was followed by a 40 min dissociation phase to allow for a proper estimation of the dissociation rate constant. Test compounds were delivered in DMSO at a concentration of 10 mM and a digital dispenser HP D300 was used to set up the compound concentration series using 6 concentrations. The tested concentrations have been 30, 100, 300, 1000, 3000 and 10000 nM. Prior to injecting any compound, the surfaces were equilibrated by injecting running buffer over them in three separate pulses. The data collection rate was set to 10 Hz.
The raw sensorgrams of the compound injections were first subjected to reference subtraction (subtracting the signal from flow channel 1 and/or 3 from the signal from channels 2 and/or 4 respectively) and then blank subtraction (subtracting the signal from injecting DMSO controls from the reference subtracted data). The resulting double-referenced sensorgrams were then fitted using a 1:1 binding interaction model using the manufactures software package to extract kinetic- and affinity data. Active compounds have been defined by creating a detectable binding signal at the highest compound concentration ([…]) of 3 RUs. Kinetic- and affinity data on active compounds are only provided for those compounds where the binding signal at the highest compound concentration ([…]) is 50% of the theoretical maximum binding signal for a 1:1 binding interaction (Rmax, typically between 15-20 RUs) in order to enable a proper fitting of the data.
Target sequence in this assay (Q8NBP7 31-692): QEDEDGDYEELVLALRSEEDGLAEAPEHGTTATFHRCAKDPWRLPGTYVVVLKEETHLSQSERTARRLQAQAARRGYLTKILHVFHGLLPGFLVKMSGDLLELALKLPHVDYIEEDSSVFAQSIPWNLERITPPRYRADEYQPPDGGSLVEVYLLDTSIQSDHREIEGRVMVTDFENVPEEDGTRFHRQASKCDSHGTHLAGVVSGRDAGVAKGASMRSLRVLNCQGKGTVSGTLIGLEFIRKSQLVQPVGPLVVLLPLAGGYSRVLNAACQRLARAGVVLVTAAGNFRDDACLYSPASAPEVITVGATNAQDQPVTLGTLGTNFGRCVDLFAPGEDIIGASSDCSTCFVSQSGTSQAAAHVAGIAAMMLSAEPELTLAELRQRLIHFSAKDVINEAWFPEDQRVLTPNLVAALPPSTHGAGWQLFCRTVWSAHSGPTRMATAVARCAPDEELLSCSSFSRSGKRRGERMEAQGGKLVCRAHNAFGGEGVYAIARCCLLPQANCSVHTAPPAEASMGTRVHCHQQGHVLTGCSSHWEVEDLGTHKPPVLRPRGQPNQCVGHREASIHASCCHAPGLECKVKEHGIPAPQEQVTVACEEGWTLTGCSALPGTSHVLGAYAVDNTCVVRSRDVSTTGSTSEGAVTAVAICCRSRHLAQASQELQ

The target in experiment [2] is PCSK9 (Homo sapiens, UniProt Q8NBP7, G670E/V474I). Nature of the experiment: biochemical.
Sequence of PCSK9 (Homo sapiens, UniProt Q8NBP7, G670E/V474I) (Q8NBP7 with tags, fused parts or gaps V474I/G670E): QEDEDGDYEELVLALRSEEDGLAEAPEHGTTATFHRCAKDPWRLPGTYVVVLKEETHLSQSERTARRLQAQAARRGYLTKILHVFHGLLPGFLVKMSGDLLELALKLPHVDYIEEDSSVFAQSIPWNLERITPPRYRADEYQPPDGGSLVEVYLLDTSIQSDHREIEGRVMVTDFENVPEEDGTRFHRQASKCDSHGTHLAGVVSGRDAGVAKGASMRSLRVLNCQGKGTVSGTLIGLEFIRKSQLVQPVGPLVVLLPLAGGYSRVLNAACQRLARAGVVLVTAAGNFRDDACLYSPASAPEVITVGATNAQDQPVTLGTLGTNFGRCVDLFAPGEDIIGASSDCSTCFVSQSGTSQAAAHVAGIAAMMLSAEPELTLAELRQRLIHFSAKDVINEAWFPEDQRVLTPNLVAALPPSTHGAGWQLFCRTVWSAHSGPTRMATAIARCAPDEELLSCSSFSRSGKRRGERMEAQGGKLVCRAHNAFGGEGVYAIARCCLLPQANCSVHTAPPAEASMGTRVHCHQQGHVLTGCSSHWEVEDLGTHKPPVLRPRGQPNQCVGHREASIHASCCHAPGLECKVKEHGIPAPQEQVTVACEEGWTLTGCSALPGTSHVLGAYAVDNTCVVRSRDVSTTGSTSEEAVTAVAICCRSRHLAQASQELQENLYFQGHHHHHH
Experiment [3] deals with T2, potassium ion channel hERG (Homo sapiens, UniProt Q12809).
T2 construct: expressed in transfected cells; host or cells: Chinese hamster ovary K1 (CHO)
T2 sequence (Q12809 whole entry): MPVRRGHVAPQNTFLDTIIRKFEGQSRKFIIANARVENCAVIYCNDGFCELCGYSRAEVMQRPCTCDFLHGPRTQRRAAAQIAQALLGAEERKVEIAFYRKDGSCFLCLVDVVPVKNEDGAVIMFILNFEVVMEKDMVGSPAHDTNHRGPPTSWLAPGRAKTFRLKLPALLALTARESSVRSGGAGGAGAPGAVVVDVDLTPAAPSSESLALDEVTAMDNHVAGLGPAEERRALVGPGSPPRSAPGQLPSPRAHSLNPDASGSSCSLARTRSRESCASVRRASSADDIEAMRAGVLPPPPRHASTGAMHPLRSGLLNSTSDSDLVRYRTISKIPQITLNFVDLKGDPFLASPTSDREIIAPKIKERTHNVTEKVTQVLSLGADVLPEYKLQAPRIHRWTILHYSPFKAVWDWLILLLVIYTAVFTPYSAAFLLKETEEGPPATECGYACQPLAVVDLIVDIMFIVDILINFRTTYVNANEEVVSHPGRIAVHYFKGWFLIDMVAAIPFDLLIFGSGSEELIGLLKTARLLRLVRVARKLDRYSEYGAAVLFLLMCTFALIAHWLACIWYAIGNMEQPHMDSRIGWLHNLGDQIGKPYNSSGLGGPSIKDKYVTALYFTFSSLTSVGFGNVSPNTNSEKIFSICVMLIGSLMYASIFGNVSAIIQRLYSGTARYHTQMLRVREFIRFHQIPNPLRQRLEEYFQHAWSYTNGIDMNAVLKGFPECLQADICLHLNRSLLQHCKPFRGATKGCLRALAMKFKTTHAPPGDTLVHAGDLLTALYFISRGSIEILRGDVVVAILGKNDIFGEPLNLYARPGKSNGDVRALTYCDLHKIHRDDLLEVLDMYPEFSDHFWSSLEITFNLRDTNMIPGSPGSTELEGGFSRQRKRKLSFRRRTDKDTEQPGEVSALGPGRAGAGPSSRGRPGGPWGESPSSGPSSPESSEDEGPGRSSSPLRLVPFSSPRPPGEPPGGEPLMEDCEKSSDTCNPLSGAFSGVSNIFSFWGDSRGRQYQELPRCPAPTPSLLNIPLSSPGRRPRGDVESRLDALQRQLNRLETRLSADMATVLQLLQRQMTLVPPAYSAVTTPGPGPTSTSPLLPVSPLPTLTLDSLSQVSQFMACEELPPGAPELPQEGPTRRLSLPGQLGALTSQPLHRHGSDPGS
Nature of the experiment: Assay 5 hERG assay (patch clamp, CHO cells over-expressing hERG). The format is cell-based. Particulars: SyncroPatch 384PE, room temperature, geometric mean, read-out: Assay 5 (hERG Hu CHO if EPh CR-Syncro) GMean IC50. The procedure, abridged: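 hERG currents recorded by automated patch clamp at room temperature in CHO-K1 cells, 6-point cumulative concentrations. SyncroPatch runs used KF-based internal (pH 7.2) and NMDG-containing external solution (pH 7.4), 0.33% DMSO; QPatchII runs used 2% or 0.4% DMSO. Only wells meeting seal-resistance and current-size criteria kept.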
(hERG is a cardiac potassium channel; its block is linked to QT prolongation.)

Experiment [4] addresses GSK3β (Glycogen synthase kinase-3 beta) (Homo sapiens, UniProt P49841). In words: Assay 6 GSK3β assay (ThermoFisher Z-Lyte FRET). The format is biochemical. The following applies: ATP Conc: 10 μM, geometric mean; read-out: Assay 6 (GSK3β FRET-Z-Lyte Cr) GMean IC50. The gist of the method:
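Z-Lyte FRET: 0.22-0.92 ng kinase with 2 μM Ser/Thr 09 peptide in HEPES pH 7.5, MgCl2, EGTA, 60 min at room temperature, then 60 min development. Compounds in 1% DMSO, 10-point 3-fold series from 10 μM; sigmoidal dose-response fit.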

Experiment [5] deals with T1, PCSK9. The arrangement: host or cells: patients. Particulars: clinical trials, patients; alirocumab compared to placebo; cited from earlier work.
Target sequence in this assay (Q8NBP7 153-692): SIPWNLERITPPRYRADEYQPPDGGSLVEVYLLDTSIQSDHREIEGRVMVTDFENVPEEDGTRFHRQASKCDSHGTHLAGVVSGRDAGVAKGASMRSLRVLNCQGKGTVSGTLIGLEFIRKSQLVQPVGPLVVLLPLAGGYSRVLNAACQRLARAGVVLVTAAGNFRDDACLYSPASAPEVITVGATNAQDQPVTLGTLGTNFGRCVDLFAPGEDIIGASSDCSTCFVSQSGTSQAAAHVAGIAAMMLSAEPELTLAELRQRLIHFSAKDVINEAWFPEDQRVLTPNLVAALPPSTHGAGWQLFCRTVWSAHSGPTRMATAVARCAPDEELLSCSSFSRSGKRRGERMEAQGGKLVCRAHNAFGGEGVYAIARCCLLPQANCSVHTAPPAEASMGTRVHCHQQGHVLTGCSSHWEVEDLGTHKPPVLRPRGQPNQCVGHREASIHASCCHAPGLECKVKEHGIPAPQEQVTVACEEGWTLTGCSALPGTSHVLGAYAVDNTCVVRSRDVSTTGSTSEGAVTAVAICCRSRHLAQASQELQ

Sequence of GSK3β (Glycogen synthase kinase-3 beta) (P49841 whole entry): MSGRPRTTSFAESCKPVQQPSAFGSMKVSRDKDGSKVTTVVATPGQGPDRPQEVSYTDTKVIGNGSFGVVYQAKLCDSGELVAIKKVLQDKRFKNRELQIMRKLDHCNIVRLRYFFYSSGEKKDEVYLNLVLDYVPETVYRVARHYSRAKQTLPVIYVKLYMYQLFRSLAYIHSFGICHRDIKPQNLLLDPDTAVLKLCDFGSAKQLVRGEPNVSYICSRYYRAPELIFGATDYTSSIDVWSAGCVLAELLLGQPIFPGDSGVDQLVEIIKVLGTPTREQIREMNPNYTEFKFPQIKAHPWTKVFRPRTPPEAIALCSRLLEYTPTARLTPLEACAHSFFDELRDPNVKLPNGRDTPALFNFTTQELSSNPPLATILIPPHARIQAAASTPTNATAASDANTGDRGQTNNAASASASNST

As to `Cc1nnc(N[C@H]2CC[C@H](Nc3ccc(-n4ccccc4=O)cn3)C2)nc1C` [Example 127, 6′-(((1S,3S)-3-((5,6-Dimethyl-1,2,4-triazin-3-yl)amino)cyclopentyl)amino)-2H-[1,3′-bipyridin]-2-one], the Kd at PCSK9 [1] was 248 nM. Also, the IC50 is 193 nM on PCSK9 [2], more than 40000 nM in experiment [3] and more than 10000 nM in experiment [4].
As for alirocumab, the “decrease in LDL levels” value with PCSK9 [5] is “about 50%”.
As to `Cc1cnc(N[C@H]2CC[C@H](Nc3ccc(-n4ncc5cccnc54)cn3)C2)nn1` [Example 310, (1S,3S)—N′-(5-(1H-Pyrazolo[3,4-b]pyridin-1-yl)pyridin-2-yl)-N^3-(6-methyl-1,2,4-triazin-3-yl)cyclopentane-1,3-diamine], at PCSK9 [1], the Kd came to 19 nM. For the same compound, the values for the concentration for half-maximal inhibition (IC50) (against PCSK9 [2]; in experiment [3]; in experiment [4]) were 22 nM, 35000 nM and more than 10000 nM, respectively.
Consider `CCNC(=O)c1cnc(N[C@H]2CC[C@H](Nc3ccc(-n4ccccc4=O)cn3)C2)nn1` [Example 73, N-Ethyl-3-(((1S,3S)-3-((2-oxo-2H-[1,3′-bipyridin]-6′-yl)amino)cyclopentyl)amino)-1,2,4-triazine-6-carboxamide], for which the Kd at PCSK9 [1] was 48 nM. In addition, the figures for the 50% inhibitory concentration (IC50) (against PCSK9 [2]; in experiment [3]; in experiment [4]) were 75 nM, more than 40000 nM and more than 10000 nM, respectively.
With `O=C(NCC(F)F)c1cnc(N[C@H]2CC[C@H](Nc3ccc(-n4ccccc4=O)cn3)C2)nn1` [Example 71, N-(2,2-Difluoroethyl)-3-(((1S,3S)-3-((2-oxo-2H-[1,3′-bipyridin]-6′-yl)amino)cyclopentyl)amino)-1,2,4-triazine-6-carboxamide], the dissociation constant Kd on PCSK9 [1] came to 63 nM. The 50% inhibitory concentration (IC50) is 46 nM at PCSK9 [2], more than 40000 nM in experiment [3] and more than 10000 nM in experiment [4].
The matching figures for `NC(=O)c1cnc(N[C@H]2CC[C@H](Nc3ccc(-n4ccccc4=O)cn3)C2)nn1` [Example 74, 3-(((1S,3S)-3-((2-Oxo-2H-[1,3′-bipyridin]-6′-yl)amino)cyclopentyl)amino)-1,2,4-triazine-6-carboxamide]: 80 nM, 85 nM, more than 40000 nM and 8300 nM.
For the compound `O=C(NCCO)c1cnc(N[C@H]2CC[C@H](Nc3ccc(-n4ccccc4=O)cn3)C2)nn1` [Example 72, N-(2-Hydroxyethyl)-3-(((1S,3S)-3-((2-oxo-2H-[1,3′-bipyridin]-6′-yl)amino)cyclopentyl)amino)-1,2,4-triazine-6-carboxamide], the Kd on PCSK9 [1] came out at 170 nM. Also, the IC50 at PCSK9 [2] is 205 nM; in experiment [3], more than 40000 nM; in experiment [4], more than 10000 nM.
With `Cc1cnc(N[C@H]2CC[C@H](Nc3ccc(-n4ncc5ccccc54)cn3)C2)nn1` [Example 311, (1S,3S)—N′-(5-(1H-Indazol-1-yl)pyridin-2-yl)-N^3-(6-methyl-1,2,4-triazin-3-yl)cyclopentane-1,3-diamine], the Kd at PCSK9 [1] was determined as 6.9 nM. For the same compound, the IC50 against PCSK9 [2] is 5.5 nM; in experiment [3] it was 7600 nM; in experiment [4], more than 10000 nM.

Broadly, the Kd is the concentration at which binding is half-saturated. One may read the IC50 as the concentration needed to halve the response being measured.

The values above are taken from US20240228469A1, “PCSK9 INHIBITORS AND METHODS OF USE THEREOF” (AstraZeneca AB, priority 2022, published 2024).
